What was measured:
[1] = tested on: mice; assay: CECAL (Charcoal Meal Test); assay type: in vivo; details: Mus musculus, po; i.g., 1 hour prior to the charcoal meal; antidiarrheal effect; read-out: Cecal Test (CT) ED50
Protocol: The antidiarrheal effect of the compounds of the present invention are shown by the following test:
CECAL (Charcoal Meal Test)
Mice weighing 18-24 grams and previously fasted for 24 hours are each given orally 0.2 ml of a suspension containing 10% charcoal and 1% methylcellulose. The test compounds are administered intragastrically 1 hour prior to the charcoal meal. 3.5 Hours after administration of the meal the mice are sacrificed by cervical dislocation and the cecum is examined for the presence or absence of charcoal on an all or none basis. Each compound is tested at three dose levels (typically 30, 10, 3 mg/kg) in groups of 6 mice per dose level. Control groups of mice given vehicle only were run concurrently with each test group.

[2] = tested on: mice; assay: Mouse Hot Plate Test; assay type: in vivo; details: for ED50: Mus musculus, printed "mg/kg k.g.", hot plate 55± 0.3° C., analgesic effect, read-out: Hot Plate (HP) ED50; for Relative Constipation Specificity HP/CT: ratio of Hot Plate ED50 to Cecal Test ED50
Protocol: The assessment of the analgesic effect of the instant compounds was conducted in the mouse hot plate and tail clip tests.
A mouse (adult male weighing 18-25 grams) is placed in a restraining cylinder on a hot plate with the temperature controlled at 55± 0.3° C. The reaction time of the mouse to lick a foot or jump is measured at 60, 40 and 20 minutes before and 30, 60, 90, and 120 minutes after administration of the test compound. The "normal" reaction time is measured as the median of the three pretreatment reaction times. A positive response consists of a reaction time greater than twice the normal time at any of the post treatment times. A dose of the test compound is considered active when 50 percent or more of the animals used show a positive response.

[3] = tested on: mice; assay: Tail Clip Test; assay type: in vivo, mouse; details: for ED50: Mus musculus, po, i.g., analgesic effect, read-out: Tail Clip (TC) ED50; for Relative Constipation Specificity TC/CT: ratio of Tail Clip ED50 to Cecal Test ED50

| SMILES | ED50 [1] [mg/kg] | ED50 [2] [mg/kg] | Relative Constipation Specificity HP/CT [2] | ED50 [3] [mg/kg] | Relative Constipation Specificity TC/CT [3] |
| --- | --- | --- | --- | --- | --- |
| OC1(c2ccccc2)CCN(CCC(c2ccccc2)(c2ccccc2)c2ccccc2)CC1 [I, 1-(3,3,3-triphenylpropyl)-4-hydroxy-4-phenylpiperidine] | 0.39 | ~3 | 7.6 | ~3 | 7.6 |
| OC1(Cc2ccccc2)CCN(CCC(c2ccccc2)(c2ccccc2)c2ccccc2)CC1 [II, 1-(3,3,3-triphenylpropyl)-4-hydroxy-4-benzylpiperidine] | 0.6 | ~400 | 667 | ~400 | 667 |

Source: patent US4116963A, “3,3,3-Triarylalkyl-4-phenylalkyl-4-hydroxy piperidines and related compounds” (G.D. Searle & Co., priority 1977, dated 1978)
